Source: patent US12570670B2, “Compounds, compositions, and methods for treating fibrosis” (YALE UNIVERSITY, priority 2019, dated 2026)
Where two headings read alike, the source gives them in different places.

Tests used:
[1] = target: T1, MKP5-CD (catalytic domain of MKP5, residues 320-467) (Homo sapiens, UniProt Q9Y6W6); assay: Malachite green phosphatase assay of MKP5-CD with p38α MAPK phosphopeptide substrate; format: biochemical
T1 construct: The catalytic domain of MKP5 (MKP5-CD, residues 320-467) was inserted into a pET-28a vector; His-tag (N, cleaved yes); made in house; host or cells: E. coli BL21 (DE3)
T1 sequence (Q9Y6W6 320-467): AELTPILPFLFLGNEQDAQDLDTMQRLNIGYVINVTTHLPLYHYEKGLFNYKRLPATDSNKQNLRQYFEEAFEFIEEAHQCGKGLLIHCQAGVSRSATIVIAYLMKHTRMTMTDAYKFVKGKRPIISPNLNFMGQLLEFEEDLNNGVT
Description: A small molecule collection was screened for activity against MKP5-CD using a malachite green assay in 384-well format. MKP5-CD and p38α MAPK phosphopeptide (DDE(Nle)(pT)G(pY)VATR) substrate were diluted into PTP buffer (50 mM Tris pH 7.2, 1 mM EDTA, 0.1% β-mercaptoethanol, 0.01% Triton X-100). The screen was performed in two distinct phases. An initial screen against a subset of the compound library was carried out in the following conditions: 1.5 μM MKP5-CD, 25 μM phosphopeptide, 30 min at 37° C. A second follow-up screen was performed with the following modifications: 0.5 μM MKP5-CD, 50 μM phosphopeptide, 15 min at 30° C. Test compounds (20 nL) were dispensed with either an Aquarius (Tecan) pintool system (initial phase) or Echo 550 (Labcyte) acoustic dispenser (follow-up phase). In both phases, the test compound concentration was 20 μM in the 10 μL reaction and the final DMSO was 0.2%. […] The plate was incubated for 10-15 min at room temperature to allow color development and absorbance at 620 nm measured. The signal-to-background (S/B) ratio was calculated from the mean absorbance of vehicle-treated wells with and without enzyme (negative and positive controls; n=32 per condition). Percent inhibition of test wells was calculated from the mean positive and negative controls on each plate. […]

STEP-46 = target: T2, STEP-46 (Homo sapiens, UniProt P54829); assay: STEP-46 pNPP counterscreen; format: biochemical; settings: pNPP assay, FIG. 15; read-out: IC50 against STEP-46
T2 sequence (P54829 1-565): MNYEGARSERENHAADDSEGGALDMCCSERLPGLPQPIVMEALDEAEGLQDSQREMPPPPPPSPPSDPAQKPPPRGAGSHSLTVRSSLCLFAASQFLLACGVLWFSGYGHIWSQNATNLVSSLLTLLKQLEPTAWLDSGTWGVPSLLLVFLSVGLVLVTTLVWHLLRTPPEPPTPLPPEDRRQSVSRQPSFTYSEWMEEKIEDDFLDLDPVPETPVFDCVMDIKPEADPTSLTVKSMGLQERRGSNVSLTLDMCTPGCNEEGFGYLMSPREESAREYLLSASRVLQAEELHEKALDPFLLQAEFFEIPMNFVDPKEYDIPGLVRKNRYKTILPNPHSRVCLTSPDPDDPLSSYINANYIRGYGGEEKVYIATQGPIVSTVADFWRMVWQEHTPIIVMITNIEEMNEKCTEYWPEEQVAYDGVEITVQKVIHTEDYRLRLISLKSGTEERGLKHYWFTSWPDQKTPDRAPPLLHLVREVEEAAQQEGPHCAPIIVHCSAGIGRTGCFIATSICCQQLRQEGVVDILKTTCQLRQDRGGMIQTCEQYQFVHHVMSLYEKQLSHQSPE
Description: (§1) To test for 1 activity on STEP-46, a pNPP assay was employed with 1.5 μM STEP46 and 10 mM pNPP. After 30 min at room temperature, absorbance at 405 nm was measured. For comparison, MKP5-CD was tested in the pNPP assay under identical conditions. For PTP1B, the Millipore PTP1B assay kit (#539736) was performed as recommended by the manufacturer except that malachite green was used for detection.

PTP-1B = target: T3, PTP-1B (Homo sapiens, UniProt P18031); assay: PTP1B counterscreen (Millipore kit, malachite green detection); format: biochemical; settings: FIG. 15; read-out: IC50 against PTP-1B
T3 construct: purchased Millipore 539736
T3 sequence (P18031 1-435): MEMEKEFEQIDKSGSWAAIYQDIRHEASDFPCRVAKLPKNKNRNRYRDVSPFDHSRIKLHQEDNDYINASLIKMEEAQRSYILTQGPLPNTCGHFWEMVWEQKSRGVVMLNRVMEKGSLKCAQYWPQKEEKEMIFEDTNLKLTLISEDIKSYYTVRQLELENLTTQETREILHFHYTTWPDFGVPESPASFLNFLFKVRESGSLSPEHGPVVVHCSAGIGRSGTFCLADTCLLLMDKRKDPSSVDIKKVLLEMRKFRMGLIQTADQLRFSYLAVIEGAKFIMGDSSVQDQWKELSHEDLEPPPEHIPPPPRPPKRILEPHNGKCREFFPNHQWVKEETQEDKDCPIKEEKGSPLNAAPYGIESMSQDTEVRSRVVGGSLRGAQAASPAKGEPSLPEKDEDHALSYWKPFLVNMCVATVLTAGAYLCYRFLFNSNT
Description: as §1

MKP5-CD [2] = target: T4, MKP5-CD (Homo sapiens, UniProt Q9Y6W6); assay: Microscale thermophoresis binding assay; settings: fluorescently-labeled MKP5-CD, FIG. 1D; read-out: dissociation constant (Kd)
T4 construct: The catalytic domain of MKP5 (MKP5-CD, residues 320-467) was inserted into a pET-28a vector; His-tag (N, cleaved yes); made in house; host or cells: E. coli BL21 (DE3)
T4 sequence (Q9Y6W6 320-467): T1 sequence (Q9Y6W6 320-467)
Description: (§2) Binding interactions between MKP5-CD and 1 were carried out using microscale thermophoresis (MST) on a Monolith NT.115Pico instrument. MKP5-CD was labeled for MST using NanoTemper Monolith NTTM Protein Labeling Kit RED-NHS 2nd Generation (#MO-L011). Briefly, MKP5-CD was transferred into the provided labeling buffer and diluted to 20 μM. Dye was added in a 2-fold molar excess and allowed to incubate 30 minutes at room temperature. Excess dye was removed using the provided column equilibrated in 50 mM Tris pH 8.0, 150 mM NaCl, 0.05% Tween-20. A fixed amount of labeled wild-type or mutant MKP5-CD was combined with up to 200 μM 1 and loaded into premium capillaries. MST experiments were carried out at 40% IR power for 20 seconds. Normalized fluorescence (Fnorm) values at a given time were plotted against inhibitor concentration, and the Kd was determined by fitting with a hyperbolic binding curve. Experiments were performed in triplicate and data are presented as means±SD.

[3] = target: T5, catalytic domain of MKP1 (MKP1-CD) (Homo sapiens, UniProt P28562); assay: Malachite green assay of MKP1-CD; format: biochemical
T5 construct: MKP1-CD (human aa 172-314); purchased ARVYS Proteins (Trumbull, CT)
T5 sequence (P28562 172-314): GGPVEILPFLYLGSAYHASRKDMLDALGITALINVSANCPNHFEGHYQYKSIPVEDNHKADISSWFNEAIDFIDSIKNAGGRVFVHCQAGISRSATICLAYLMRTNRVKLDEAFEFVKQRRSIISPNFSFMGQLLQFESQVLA
Description: Compound 1 selected from the screen was tested for activity against MKP1 and MKP5 using the malachite green assay. For MKP5-CD, the same conditions for the screening assay were used. For MKP1-CD, the following conditions were used: 1 μM MKP1-CD, 50 μM pTpY, 120 min at 30° C.

MKP5-CD [4] = target: T4, MKP5-CD; assay: Phosphate sensor kinetic assay with full-length p38α MAPK as substrate; format: biochemical; settings: 25 μM inhibitor, varying p38α MAPK
Description: The phosphate sensor protein (PS) was purchased from Life Technologies (Lot #1962036B). To characterize the activity of MKP5-CD against full length p38α MAPK, 5 nM MKP5-CD and 0.5 μM PS were combined in 50 mM Tris (pH 7.6), 25 mM NaCl, 0.01% Triton X100 and […] and added to a Corning #4511 384-well plate. Using an Echo 550 liquid handler (LabCyte Inc.), either 25 μM compound 1 or neat DMSO were added to a final DMSO concentration of 0.2%. Reactions were initiated with up to 300 μM p38α MAPK, a concentration approximately 5 times the KM of MKP5-CD39, and allowed to proceed at ambient temperature for 20 minutes. Fluorescence was continuously monitored by Tecan Infinite M1000 with excitation at 425 f 5 nm and emission at 454 f 5 nm. Raw fluorescence was converted to phosphate release using a standard curve generated the same day as kinetic experiments. The initial velocity was determined for each well based on reaction progress in the first 120 seconds. These velocities were then plotted against substrate concentration and fit to a mixed-mechanism inhibition curve.

[5] = test system: MKP5-CD Y435A, Y435S, Y435W mutants; assay: Binding and inhibition of Tyr435 mutant MKP5-CD constructs; format: biochemical; settings: FIG. 3C
Description: The catalytic domain of MKP5 (MKP5-CD, residues 320-467) was inserted into a pET-28a vector for expression. Mutant constructs were generated according to the QuikChange II (Agilent) site directed mutagenesis protocol. Constructs were transformed into BL21 (DE3) cells and grown in LB containing 100 μg/mL kanamycin to an OD of 0.8. Protein expression was induced with 1 mM IPTG, and cells were harvested after overnight incubation at 22° C.
as §2, with “Experiments were performed in triplicate and data are presented as means±SD.” left out

p38α MAPK [6] = assay: p38α MAPK activation in C2C12 myoblasts (pMAPK/MAPK immunoblot); format: cell-based, mouse
Description: (§3) C2C12 myoblasts were cultured as described previously. Substantively, wild type (mkp-5^+/+) and MKP5-deficient (mkp-5^−/−) mouse embryo fibroblasts (MEFs) were generated from female mice at days 13-14 of pregnancy and established by spontaneous immortalization. C2C12 myoblasts and MEFs were treated with 1 at the indicated concentrations for 24 h. For immunoblotting, C2C12 myoblasts or MKP5 wild type and MKP5-deficient fibroblasts were lysed on ice in lysis buffer and clarified by centrifugation at 20,800×g at 4° C. for 20 min. Protein concentration was determined using BCA reagent according to the manufacturer's instructions (Pierce). Recombinant human TGF-β1 (240-B-002) was purchased from R&D Systems. For phospho-MAPK and MAPK immunoblotting, lysates were resolved by SDS-PAGE and transferred onto nitrocellulose membranes (Bio-Rad). Membranes were blocked with 5% nonfat dry milk or 5% BSA in Tris-buffered saline/Tween 20 (TBS-T) for 1 h at room temperature or overnight at 4° C. Primary antibodies were diluted in 5% BSA or 5% nonfat dry milk in TBS-T. MAPK and Smad2 activation were calculated as the ratio of the indicated phosphorylated MAPK or phosphorylated Smad2 to total MAPK or Smad2, respectively by direct fluorescence quantitation using the Odyssey CLx Imaging System. Images were processed with the LI-COR Image Studio Software.

JNK [7] = assay: JNK activation in C2C12 myoblasts (pMAPK/MAPK immunoblot); format: cell-based, mouse
Description: as §3

ERK1/2 [8] = assay: ERK1/2 activation in C2C12 myoblasts (pMAPK/MAPK immunoblot); format: cell-based, mouse; settings: even at the highest concentration
Description: as §3

Smad2 = assay: TGF-β1-mediated Smad2 phosphorylation in wild type MEFs; format: cell-based, mouse; settings: TGF-β1 1 ng/ml 10 minutes
Description: as §3

p38α MAPK [9] = assay: p38α MAPK phosphorylation in wild type MEFs; format: cell-based, mouse
Description: as §3

JNK [10] = assay: JNK phosphorylation in wild type MEFs; format: cell-based, mouse
Description: as §3

ERK1/2 [11] = assay: ERK1/2 phosphorylation in wild type MEFs; format: cell-based, mouse
Description: as §3

CSc1scc2c1-c1nc(SCC(=O)C(C)(C)C)ncc1CC2 [Compound 1, 3,3-Dimethyl-1-((9-(methylthio)-5,6-dihydrothieno[3,4-h]quinazolin-2-yl)thio)butan-2-one]
IC50 [1]: ~4.2 µM | IC50 ([1]; resynthesized compound, p38α MAPK phosphopeptide substrate, FIG. 1E, read-out: IC50 against MKP5-CD): 3.9 ± 0.6 µM | IC50 (STEP-46): > 200 µM | IC50 (PTP-1B): > 100 µM | Kd (MKP5-CD [2]): 1 ± 0.2 µM | IC50 ([3]; FIG. 1F, read-out: IC50 towards the catalytic domain of MKP1): > 60 µM | reduction in potency for MKP1 relative to MKP5 ([3]; MKP1 versus MKP5): 16 fold | mode of inhibition (MKP5-CD [4]): mixed competitive mode of inhibition | α of mixed-mechanism inhibition fit (MKP5-CD [4]): ≈ 4.6 | binding to and inhibition of Tyr435 mutants [5]: only capable of binding to and inhibiting the activity of the Y435W mutant | activation of p38α MAPK (p38α MAPK [6]; 24 h): increased in a dose-dependent manner | induction of p38α MAPK activity (p38α MAPK [6]; highest concentration): 2.0 fold | JNK activation (JNK [7]; 24 h): increased upon treatment of C2C12 myoblasts but with less effectiveness as compared with p38 MAPK | induction of JNK activity (JNK [7]; highest concentration): 1.4 fold | activation status of ERK1/2 (ERK1/2 [8]): did not alter | TGF-β1-mediated Smad2 phosphorylation (Smad2): inhibited | phosphorylation of p38α MAPK (p38α MAPK [9]): dose-dependent increase | phosphorylation of JNK (JNK [10]): dose-dependent increase | phosphorylation of ERK1/2 (ERK1/2 [11]): not ERK1/2
